Assay: xn = mol fraction of the nth substance listed
Conditions: 298.15 K, 101.3 kPa, Liquid; for viscosity: Capillary tube (Ostwald / Ubbelohde) method

ClC(Cl)=C(Cl)Cl [tetrachloroethene] + CCOC(C)=O
Conditions | mass density [kg/m3] | viscosity [mPa·s]
x1 = 0.0962 | 961.2 | 0.4946
x1 = 0.1932 | 1030.8 | 0.5525
x1 = 0.291 | 1100.6 | 0.6095
x1 = 0.3899 | 1171 | 0.6633
x1 = 0.4894 | 1241.8 | 0.711
x1 = 0.5901 | 1313.6 | 0.7481
x1 = 0.6911 | 1385.7 | 0.7788
x1 = 0.7937 | 1460 | 0.8078
x1 = 0.8964 | 1534.5 | 0.8295
x1 = 1 | 1610.2 | 0.8474

ClC(Cl)=C(Cl)Cl [tetrachloroethene] + CO
Conditions | mass density [kg/m3] | viscosity [mPa·s]
x1 = 0.042 | 868.7 | 0.5644
x1 = 0.0897 | 950.1 | 0.5806
x1 = 0.1446 | 1030.1 | 0.5981
x1 = 0.2082 | 1112 | 0.6209
x1 = 0.2828 | 1192.6 | 0.6449
x1 = 0.372 | 1274.4 | 0.6751
x1 = 0.4795 | 1355.9 | 0.7069
x1 = 0.6123 | 1439.7 | 0.7412
x1 = 0.7804 | 1524.3 | 0.7875
x1 = 1 | 1610.2 | 0.8474

ClC(Cl)=C(Cl)Cl [tetrachloroethene] + COC(C)=O
Conditions | mass density [kg/m3] | viscosity [mPa·s]
x1 = 0.0796 | 989.2 | 0.4237
x1 = 0.1628 | 1054.7 | 0.4749
x1 = 0.25 | 1120.7 | 0.5226
x1 = 0.3415 | 1188.6 | 0.5729
x1 = 0.4373 | 1255.3 | 0.6243
x1 = 0.5388 | 1322.7 | 0.6708
x1 = 0.6452 | 1393.1 | 0.7166
x1 = 0.7573 | 1464.2 | 0.7614
x1 = 0.8749 | 1535.4 | 0.8038
x1 = 1 | 1610.2 | 0.8474

ClC(Cl)=C(Cl)Cl [tetrachloroethene] + Cc1ccccc1
Conditions | mass density [kg/m3] | viscosity [mPa·s]
x1 = 0.1034 | 932 | 0.5799
x1 = 0.2062 | 1004.7 | 0.6014
x1 = 0.3079 | 1078.4 | 0.6234
x1 = 0.4093 | 1151.3 | 0.6477
x1 = 0.5095 | 1225.3 | 0.6743
x1 = 0.6092 | 1300.1 | 0.7053
x1 = 0.7083 | 1376.8 | 0.7377
x1 = 0.806 | 1451.7 | 0.7701
x1 = 0.9038 | 1530.1 | 0.8084
x1 = 1 | 1610.2 | 0.8474

ClC(Cl)=C(Cl)Cl [tetrachloroethene] + ClC(Cl)(Cl)Cl
Conditions | mass density [kg/m3] | viscosity [mPa·s]
x1 = 0.0946 | 1583.5 | 0.8943
x1 = 0.1904 | 1582.4 | 0.8803
x1 = 0.2873 | 1582 | 0.8675
x1 = 0.3853 | 1582.5 | 0.8569
x1 = 0.4845 | 1583.8 | 0.8504
x1 = 0.5859 | 1587.2 | 0.8452
x1 = 0.6876 | 1590.1 | 0.8407
x1 = 0.7904 | 1596.8 | 0.8422
x1 = 0.8946 | 1603.2 | 0.8445
x1 = 1 | 1610.2 | 0.8474

ClC(Cl)=C(Cl)Cl [tetrachloroethene] + c1ccccc1
Conditions | mass density [kg/m3] | viscosity [mPa·s]
x1 = 0.0883 | 939.8 | 0.6141
x1 = 0.1788 | 1011.5 | 0.6279
x1 = 0.272 | 1084.6 | 0.6438
x1 = 0.3674 | 1156.7 | 0.6618
x1 = 0.4655 | 1228.8 | 0.6834
x1 = 0.5671 | 1302.3 | 0.7088
x1 = 0.6706 | 1377.4 | 0.7367
x1 = 0.777 | 1453.2 | 0.7693
x1 = 0.8873 | 1531.7 | 0.8051
x1 = 1 | 1610.2 | 0.8474

ClC(Cl)(Cl)Cl [tetrachloromethane] + ClC(Cl)=C(Cl)Cl
x2 = 0
Conditions | mass density [kg/m3] | viscosity [mPa·s]
– | 1586.1 | 0.9096

ClC(Cl)(Cl)Cl [tetrachloromethane] + ClC=C(Cl)Cl
x2 = 0
Conditions | mass density [kg/m3] | viscosity [mPa·s]
– | 1586.1 | 0.9096

Cc1ccccc1 [toluene] + ClC(Cl)=C(Cl)Cl
x2 = 0
Conditions | mass density [kg/m3] | viscosity [mPa·s]
– | 860.5 | 0.5641

Cc1ccccc1 [toluene] + ClC=C(Cl)Cl
x2 = 0
Conditions | mass density [kg/m3] | viscosity [mPa·s]
– | 860.5 | 0.5641

ClC=C(Cl)Cl [trichloroethene] + CC(C)=O
Conditions | mass density [kg/m3] | viscosity [mPa·s]
x1 = 0.084 | 845.9 | 0.3412
x1 = 0.1712 | 912.3 | 0.3688
x1 = 0.2608 | 978.8 | 0.3958
x1 = 0.3544 | 1045 | 0.4244
x1 = 0.4519 | 1111.6 | 0.4501
x1 = 0.5528 | 1179 | 0.4723
x1 = 0.6582 | 1246.4 | 0.4906
x1 = 0.7671 | 1315.6 | 0.5107
x1 = 0.8815 | 1385.7 | 0.5309
x1 = 1 | 1455.7 | 0.551

ClC=C(Cl)Cl [trichloroethene] + CC(C)O
Conditions | mass density [kg/m3] | viscosity [mPa·s]
x1 = 0.0866 | 850.4 | 1.764
x1 = 0.1754 | 916.6 | 1.514
x1 = 0.2667 | 982.1 | 1.306
x1 = 0.3613 | 1047.6 | 1.119
x1 = 0.4594 | 1113.9 | 0.9582
x1 = 0.5602 | 1180.9 | 0.8218
x1 = 0.665 | 1249.2 | 0.7173
x1 = 0.7724 | 1316.8 | 0.6451
x1 = 0.8846 | 1385.9 | 0.6004
x1 = 1 | 1455.7 | 0.551

Reference: the NIST ThermoML archive (doi:10.1021/je034203p)
